According to US20220220128A1, “HETEROCYCLIC COMPOUNDS AS KINASE INHIBITORS, COMPOSITIONS COMPRISING THE HETEROCYCLIC COMPOUND, AND METHODS OF USE THEREOF” (JS Innopharm (Shanghai) Ltd, priority 2019, published 2022):

How the values were obtained:
[1] = system: TT cells; test: TT Cell Proliferation Assay (WST-8, 8 days); assay type: cell-based; settings: Homo sapiens, TT, 192 h, growth inhibition in TT cells, read-out: TT Cellular Activity
Method: Compounds disclosed herein were tested for the inhibition of RET by a cancer cell proliferation assay commonly known as MTT assay. In this assay, a complete media was prepared by adding 10% fetal bovine serum to RPMI-1640 medium (Life technology). TT cells were added to each of 88 wells of a 96 well plate at a seeding density of 6,000 cells/well/90 μL. The cells were allowed to attach to the plate by incubating at 37° C. for 24 hours. The compound was dissolved in DMSO (SIGMA). A solution of test compound was prepared in complete media by serial dilution to obtain the following concentrations: 50 μM, 15 μM, 5 μM, 1.5 μM, 0.5 μM, 0.15 μM, 0.05 μM, 0.015 μM and 0.005 μM. The test compound solution (10 μL) was added to each of 80 cell-containing wells. The final concentrations of the compound were following: 5 μM, 1.5 μM, 0.5 μM, 0.15 μM, 0.05 μM, 0.015 μM, 0.005 μM, 0.0015 μM and 0.0005 μM. The final concentration of DMSO is 0.5%. To the 8 remaining cell-containing wells, only complete media (containing 0.5% DMSO) was added to form a control group in order to measure maximal proliferation. To the remaining 8 empty wells, complete media was added to for a vehicle control group in order to measure background. The plates were incubated at 37° C. for 8 days. 10 μL WST-8 solution (DOJINDO, Cell Counting KIT-8) was added to each well. The plates were further incubated at 37° C. for 5 hours, and then read for the absorbance using a microplate reader at 450 nm. The IC50 was calculated using GraphPad Prism.

[2] = molecular target: T1, human KDR kinase (Homo sapiens, UniProt P35968); test: KDR Kinase Assay (LanthaScreen TR-FRET enzymatic assay); assay type: biochemical; settings: 1.2 nM KDR, 92 μM ATP
T1 construct: purchased Carna 08-191
Method: Compounds were tested in a LanthaScreen™ time-resolved fluorescence energy transfer (TR-FRET) enzymatic assay from Invitrogen. The assay used human KDR kinase (Carna 08-191). Test compounds were prepared and diluted in DMSO in 3-fold serial dilutions to 50× of the final testing concentrations. The compounds were then further diluted to 5× by the kinase reaction buffer (50 mM HEPES pH 7.5, 0.0015% Brij-35). The enzymatic reaction for compound testing was performed in a white 384-well polypropylene plate (Corning 3573) with a total reaction volume of 25 μl containing 1.2 nM KDR, 3 μM peptide substrate FAM-P22 (GL Biochem 112393), and 92 μM ATP (Sigma A7699-1G). The assay started with loading RET diluted in kinase reaction buffer to wells, followed by addition of equal volume of 5× compounds for 15-min incubation at the room temperature for pre-treatment. The enzymatic reaction was initiated by addition of mixture of the substrate and ATP prepared in kinase reaction buffer. After incubation at 28° C. for one hour, 25 μl of stopper buffer (a mixture of 100 mM HEPES pH 7.5 buffer, 0.015% Brij-35, 50 mM EDTA and 0.2% of coating reagent 3 (Cliper Lifesciences)) and produce TR-FRET signals. After 30 minutes of incubation at room temperature, the plate was read in a Caliper with the following settings: Excitation 340 nm (30)/Emission1 495 nm (10)/Emission2 520 nm (25). The TR-FRET values were dimensionless numbers that were calculated as the ratio of the acceptor ([…]) signal to the donor (Terbium) signal. Percent of control was calculated as the percentage of compound-treated vs 1% DMSO vehicle-treated. The dose-response curves were generated and the IC50s were calculated by nonlinear sigmoid curve fitting using XLFit.

[3] = molecular target: T2, human RET kinase (Homo sapiens, UniProt P07949); test: RET Kinase Assay (LanthaScreen TR-FRET enzymatic assay); assay type: biochemical; settings: 7 nM RET, 23 μM ATP
T2 construct: purchased Carna 08-159
Method: Compounds were tested in a LanthaScreen™ time-resolved fluorescence energy transfer (TR-FRET) enzymatic assay from Invitrogen. The assay used human RET kinase (Carna 08-159). Test compounds were prepared and diluted in DMSO in 3-fold serial dilutions to 50× of the final testing concentrations. The compounds were then further diluted to 5× by the kinase reaction buffer (50 mM HEPES pH 7.5, 0.0015% Brij-35). The enzymatic reaction for compound testing was performed in a white 384-well polypropylene plate (Corning 3573) with a total reaction volume of 25 μl containing 7 nM RET, 3 μM peptide substrate FAM-P2 (GL Biochem 112394), and 23 μM ATP (Sigma A7699-1G). The assay started with loading RET diluted in kinase reaction buffer to wells, followed by addition of equal volume of 5× compounds for 15-min incubation at the room temperature for pre-treatment. The enzymatic reaction was initiated by addition of mixture of the substrate and ATP prepared in kinase reaction buffer. After incubation at 28° C. for one hour, 25 μl of stopper buffer (a mixture of 100 mM HEPES pH 7.5 buffer, 0.015% Brij-35, 50 mM EDTA and 0.2% of coating reagent 3 (Cliper Lifesciences)) and produce TR-FRET signals. After 30 minutes of incubation at room temperature, the plate was read in a Caliper with the following settings: Excitation 340 nm (30)/Emission1 495 nm (10)/Emission2 520 nm (25). The TR-FRET values were dimensionless numbers that were calculated as the ratio of the acceptor ([…]) signal to the donor (Terbium) signal. Percent of control was calculated as the percentage of compound-treated vs 1% DMSO vehicle-treated. The dose-response curves were generated and the IC50s were calculated by nonlinear sigmoid curve fitting using XLFit.

T1 sequence (P35968 20-1356): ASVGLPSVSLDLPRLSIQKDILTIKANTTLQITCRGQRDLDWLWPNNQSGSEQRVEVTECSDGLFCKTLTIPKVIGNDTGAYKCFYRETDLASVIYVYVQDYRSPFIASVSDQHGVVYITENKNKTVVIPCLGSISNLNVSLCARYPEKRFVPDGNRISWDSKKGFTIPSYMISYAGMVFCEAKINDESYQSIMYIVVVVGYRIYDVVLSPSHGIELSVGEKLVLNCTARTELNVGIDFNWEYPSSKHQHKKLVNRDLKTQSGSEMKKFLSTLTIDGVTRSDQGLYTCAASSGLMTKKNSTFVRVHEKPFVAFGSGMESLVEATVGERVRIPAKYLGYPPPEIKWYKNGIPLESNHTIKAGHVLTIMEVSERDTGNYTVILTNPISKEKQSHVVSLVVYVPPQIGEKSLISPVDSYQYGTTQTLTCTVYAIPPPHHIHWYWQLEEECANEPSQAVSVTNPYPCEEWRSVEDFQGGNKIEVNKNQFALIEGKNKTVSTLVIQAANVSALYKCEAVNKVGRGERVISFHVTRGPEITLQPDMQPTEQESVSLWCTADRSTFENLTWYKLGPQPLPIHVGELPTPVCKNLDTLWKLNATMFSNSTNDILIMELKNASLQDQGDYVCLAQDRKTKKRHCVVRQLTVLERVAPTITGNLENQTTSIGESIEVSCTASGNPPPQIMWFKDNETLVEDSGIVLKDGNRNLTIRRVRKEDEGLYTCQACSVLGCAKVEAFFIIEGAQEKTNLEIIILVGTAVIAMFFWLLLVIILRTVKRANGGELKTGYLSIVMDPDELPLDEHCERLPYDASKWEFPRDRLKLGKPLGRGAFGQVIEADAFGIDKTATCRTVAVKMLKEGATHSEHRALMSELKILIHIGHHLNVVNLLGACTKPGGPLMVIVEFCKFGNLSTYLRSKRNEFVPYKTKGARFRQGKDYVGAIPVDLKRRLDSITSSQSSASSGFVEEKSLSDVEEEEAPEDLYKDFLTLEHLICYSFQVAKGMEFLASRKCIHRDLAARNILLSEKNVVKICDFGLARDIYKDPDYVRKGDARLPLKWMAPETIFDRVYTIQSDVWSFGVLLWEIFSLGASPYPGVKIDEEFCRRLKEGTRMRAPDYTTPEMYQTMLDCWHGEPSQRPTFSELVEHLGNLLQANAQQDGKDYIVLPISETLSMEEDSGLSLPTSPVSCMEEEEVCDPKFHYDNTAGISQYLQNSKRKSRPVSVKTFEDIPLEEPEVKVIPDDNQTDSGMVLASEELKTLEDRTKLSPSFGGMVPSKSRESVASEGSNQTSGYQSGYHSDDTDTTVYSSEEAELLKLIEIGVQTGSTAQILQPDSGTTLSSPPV
T2 sequence (P07949 29-1114): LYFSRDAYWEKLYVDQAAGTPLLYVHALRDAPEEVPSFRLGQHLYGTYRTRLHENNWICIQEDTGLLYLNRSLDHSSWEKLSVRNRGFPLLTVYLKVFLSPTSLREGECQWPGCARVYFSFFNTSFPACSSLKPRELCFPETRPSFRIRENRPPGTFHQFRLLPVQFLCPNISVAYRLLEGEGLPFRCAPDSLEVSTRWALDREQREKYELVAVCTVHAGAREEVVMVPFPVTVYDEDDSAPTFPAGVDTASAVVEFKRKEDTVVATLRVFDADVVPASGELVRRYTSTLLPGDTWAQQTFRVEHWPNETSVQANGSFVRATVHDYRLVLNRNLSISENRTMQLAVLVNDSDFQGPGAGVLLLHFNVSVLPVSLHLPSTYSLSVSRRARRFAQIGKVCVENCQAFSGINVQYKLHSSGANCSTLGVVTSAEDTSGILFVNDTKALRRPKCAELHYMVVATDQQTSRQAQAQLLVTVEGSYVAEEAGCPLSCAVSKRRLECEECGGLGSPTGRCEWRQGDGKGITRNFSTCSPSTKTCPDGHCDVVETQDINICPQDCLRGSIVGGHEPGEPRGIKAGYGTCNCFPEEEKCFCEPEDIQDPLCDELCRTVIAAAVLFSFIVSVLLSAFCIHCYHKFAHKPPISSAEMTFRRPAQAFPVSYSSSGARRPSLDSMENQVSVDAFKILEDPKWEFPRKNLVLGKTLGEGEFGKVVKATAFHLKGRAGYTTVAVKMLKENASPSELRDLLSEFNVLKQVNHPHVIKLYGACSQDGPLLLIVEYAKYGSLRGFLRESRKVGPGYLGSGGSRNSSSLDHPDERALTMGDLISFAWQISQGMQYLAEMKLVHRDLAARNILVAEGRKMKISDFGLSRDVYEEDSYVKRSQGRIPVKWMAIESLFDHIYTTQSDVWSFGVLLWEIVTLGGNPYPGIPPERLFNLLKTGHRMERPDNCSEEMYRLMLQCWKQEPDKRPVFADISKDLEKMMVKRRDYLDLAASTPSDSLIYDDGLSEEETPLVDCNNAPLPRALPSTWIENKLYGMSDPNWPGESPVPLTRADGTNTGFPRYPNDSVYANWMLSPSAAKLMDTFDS

With `CC(C)C(=O)N[C@H]1[C@@H]2CN(c3ccc(-c4cc(-c5cnn(C)c5)cn5ncc(C#N)c45)cn3)C[C@@H]21` [Example 31, N-((1R,5 S,6s)-3-(5-(3-cyano-6-(1-methyl-1H-pyrazol-4-yl)pyrazolo[1,5-a]pyridin-4-yl)pyridin-2-yl)-3-azabicyclo[3.1.0]hexan-6-yl)isobutyramide] the IC50 [1] was 50 to 100 nM, the IC50 [2] was 10 to 50 nM and the IC50 [3] was ≤ 10 nM.

For `Cc1ccc(F)cc1C(=O)N[C@H]1[C@@H]2CN(c3ccc(-c4cc(-c5cnn(C)c5)cn5ncc(C#N)c45)cn3)C[C@@H]21` [Example 26, N-((1R,5S,6s)-3-(5-(3-cyano-6-(1-methyl-1H-pyrazol-4-yl)pyrazolo[1,5-a]pyridin-4-yl)pyridin-2-yl)-3-azabicyclo[3.1.0]hexan-6-yl)-5-fluoro-2-methylbenzamide], the IC50 [1] was 10 to 50 nM, the IC50 [2] was ≤ 10 nM and the IC50 [3] was ≤ 10 nM.

`COc1cc(-c2ccc(N3C[C@@H]4C[C@@](C)(NC(=O)c5ncccc5Cl)C[C@@H]4C3)nc2)c2c(C#N)cnn2c1` [Example 52, 3-chloro-N-((3aR,5s,6aS)-2-(5-(3-cyano-6-methoxypyrazolo[1,5-a]pyridin-4-yl)pyridin-2-yl)-5-methyloctahydro-cyclopenta[c]pyrrol-5-yl)picolinamide] was tested, and the IC50 [1] was 10 to 50 nM, the IC50 [2] was 50 to 100 nM and the IC50 [3] was ≤ 10 nM.

`CCOc1cc(-c2ccc(N3C[C@@H]4C[C@@](C)(NC(=O)c5cc(F)ccc5C)C[C@@H]4C3)nc2)c2c(C#N)cnn2c1` [Example 69, N-((3aR,5s,6aS)-2-(5-(3-cyano-6-ethoxypyrazolo[1,5-a]pyridin-4-yl)pyridin-2-yl)-5-methyloctahydrocyclopenta[c]pyrrol-5-yl)-5-fluoro-2-methylbenzamide] was tested, and the IC50 [1] was ≤ 10 nM, the IC50 [2] was > 100 nM and the IC50 [3] was ≤ 10 nM.

With `Cn1cc(-c2cc(-c3ccc(N4C[C@@H]5[C@H](C4)[C@H]5NC(=O)c4ncccc4C(F)(F)F)nc3)c3c(C#N)cnn3c2)cn1` [Example 21, N-((1R,5S,6s)-3-(5-(3-cyano-6-(1-methyl-1H-pyrazol-4-yl)pyrazolo[1,5-a]pyridin-4-yl)pyridin-2-yl)-3-azabicyclo[3.1.0]hexan-6-yl)-3-(trifluoromethyl)picolinamide] the IC50 [1] was 10 to 50 nM, the IC50 [2] was ≤ 10 nM and the IC50 [3] was ≤ 10 nM.

`COc1ccc(CN2C[C@@H]3CN(c4ccc(-c5cc(-c6ccn(C)n6)cn6ncc(C#N)c56)cn4)C[C@@H]3C2)cn1` [Example 13, 4-(6-((3aR,6aS)-5-((6-methoxypyridin-3-yl)methyl)hexahydropyrrolo[3,4-c]pyrrol-2(1H)-yl)pyridin-3-yl)-6-(1-methyl-1H-pyrazol-3-yl)pyrazolo[1,5-a]pyridine-3-carbonitrile] was tested, and the IC50 [1] was 10 to 50 nM, the IC50 [2] was 10 to 50 nM and the IC50 [3] was ≤ 10 nM.

`CCOc1cc(-c2ccc(N3C[C@H]4CN(C(=O)c5ncccc5Cl)C[C@H]4C3)nc2)c2c(C#N)cnn2c1` [Example 6, 4-(6-((3aR,6aS)-5-(3-chloropicolinoyl)hexahydropyrrolo[3,4-c]pyrrol-2(1H)-yl)pyridin-3-yl)-6-ethoxypyrazolo[1,5-a]pyridine-3-carbonitrile] was tested, and the IC50 [1] was 10 to 50 nM, the IC50 [2] was > 100 nM and the IC50 [3] was ≤ 10 nM.

With `CC(C)C(O)C(=O)N[C@@H]1[C@@H]2CN(c3ccc(-c4cc(-c5cnn(C)c5)cn5ncc(C#N)c45)cc3)C[C@@H]21` (stereo partly drawn) [Example 17, N-((1R,5S,6r)-3-(4-(3-cyano-6-(1-methyl-1H-pyrazol-4-yl)pyrazolo[1,5-a]pyridin-4-yl)phenyl)-3-azabicyclo[3.1.0]hexan-6-yl)-2-hydroxy-3-methylbutanamide] the IC50 [1] was 10 to 50 nM, the IC50 [2] was 10 to 50 nM and the IC50 [3] was ≤ 10 nM.

With `COc1ccc(NC(=O)N[C@H]2[C@@H]3CN(c4ccc(-c5cc(-c6cnn(C)c6)cn6ncc(C#N)c56)cn4)C[C@@H]32)cn1` [Example 45, 1-((1R,5S,6s)-3-(5-(3-cyano-6-(1-methyl-1H-pyrazol-4-yl)pyrazolo[1,5-a]pyridin-4-yl)pyridin-2-yl)-3-azabicyclo[3.1.0]hexan-6-yl)-3-(6-methoxypyridin-3-yl)urea] the IC50 [1] was 50 to 100 nM, the IC50 [2] was ≤ 10 nM and the IC50 [3] was ≤ 10 nM.

`Cn1cc(-c2cc(-c3ccc(N4C5CC6CC4CC(NC(=O)c4ncccc4Cl)(C6)C5)nc3)c3c(C#N)cnn3c2)cn1` [Example 89, 3-chloro-N-((1R,3S,5s,7s)-2-(5-(3-cyano-6-(1-methyl-1H-pyrazol-4-yl)pyrazolo[1,5-a]pyridin-4-yl)pyridin-2-yl)-2-azaadamantan-5-yl)picolinamide] was tested, and the IC50 [1] was ≤ 10 nM, the IC50 [2] was ≤ 10 nM and the IC50 [3] was ≤ 10 nM.

In the case of `CC(O)COc1cc(-c2ccc(N3C[C@H]4CN(C(=O)c5ncccc5Cl)C[C@H]4C3)nc2)c2c(C#N)cnn2c1` (stereo partly drawn) [Example 8, 4-(6-((3aR,6aS)-5-(3-chloropicolinoyl)hexahydropyrrolo[3,4-c]pyrrol-2(1H)-yl)pyridin-3-yl)-6-(2-hydroxypropoxy)pyrazolo[1,5-a]pyridine-3-carbonitrile], the IC50 [1] is reported as 10 to 50 nM, the IC50 [2] is reported as > 100 nM and the IC50 [3] is reported as ≤ 10 nM.

`COc1ccc(C(=O)N[C@]2(C)C[C@H]3CN(c4ccc(-c5cc(OCC(C)(C)O)cn6ncc(C#N)c56)cn4)C[C@H]3C2)cn1` [Example 126, N-((3aR,5s,6aS)-2-(5-(3-cyano-6-(2-hydroxy-2-methylpropoxy)pyrazolo[1,5-a]pyridin-4-yl)pyridin-2-yl)-5-methyloctahydrocyclopenta[c]pyrrol-5-yl)-6-methoxynicotinamide] showed an IC50 [1] of 50 to 100 nM, an IC50 [2] of 10 to 50 nM and an IC50 [3] of 10 to 50 nM.

With `CCOc1cc(-c2ccc(N3C[C@@H]4C[C@@](C)(NC(=O)c5c(F)cccc5Cl)C[C@@H]4C3)nc2)c2c(C#N)cnn2c1` [Example 66, 2-chloro-N-((3aR,5s,6aS)-2-(5-(3-cyano-6-ethoxypyrazolo[1,5-a]pyridin-4-yl)pyridin-2-yl)-5-methyloctaliydrocyclopenta[c]pyrrol-5-yl)-6-fluorobenzamide] the IC50 [1] was 10 to 50 nM, the IC50 [2] was 50 to 100 nM and the IC50 [3] was ≤ 10 nM.

For `CC(C)CC(=O)NC[C@@H]1[C@H]2CN(c3ccc(-c4cc(-c5cnn(C)c5)cn5ncc(C#N)c45)cn3)C[C@@H]12` [Example 88, N-(((1R,5S,6s)-3-(5-(3-cyano-6-(1-methyl-1H-pyrazol-4-yl)pyrazolo[1,5-a]pyridin-4-yl)pyridin-2-yl)-3-azabicyclo[3.1.0]hexan-6-yl)methyl)-3-methylbutanamide], the IC50 [1] was ≤ 10 nM, the IC50 [2] was 10 to 50 nM and the IC50 [3] was ≤ 10 nM.
